The target in the experiment is T1, Porcine gastric H+/K+-ATPase (Sus scrofa, UniProt P19156).
T1 construct: The gastric vesicles were collected from interface on 0.25 M sucrose layer containing 7% Ficoll; from tissue; host or cells: mucous membrane of fresh porcine stomachs (gastric vesicles)
T1 sequence (P19156 2-1034 limits assumed): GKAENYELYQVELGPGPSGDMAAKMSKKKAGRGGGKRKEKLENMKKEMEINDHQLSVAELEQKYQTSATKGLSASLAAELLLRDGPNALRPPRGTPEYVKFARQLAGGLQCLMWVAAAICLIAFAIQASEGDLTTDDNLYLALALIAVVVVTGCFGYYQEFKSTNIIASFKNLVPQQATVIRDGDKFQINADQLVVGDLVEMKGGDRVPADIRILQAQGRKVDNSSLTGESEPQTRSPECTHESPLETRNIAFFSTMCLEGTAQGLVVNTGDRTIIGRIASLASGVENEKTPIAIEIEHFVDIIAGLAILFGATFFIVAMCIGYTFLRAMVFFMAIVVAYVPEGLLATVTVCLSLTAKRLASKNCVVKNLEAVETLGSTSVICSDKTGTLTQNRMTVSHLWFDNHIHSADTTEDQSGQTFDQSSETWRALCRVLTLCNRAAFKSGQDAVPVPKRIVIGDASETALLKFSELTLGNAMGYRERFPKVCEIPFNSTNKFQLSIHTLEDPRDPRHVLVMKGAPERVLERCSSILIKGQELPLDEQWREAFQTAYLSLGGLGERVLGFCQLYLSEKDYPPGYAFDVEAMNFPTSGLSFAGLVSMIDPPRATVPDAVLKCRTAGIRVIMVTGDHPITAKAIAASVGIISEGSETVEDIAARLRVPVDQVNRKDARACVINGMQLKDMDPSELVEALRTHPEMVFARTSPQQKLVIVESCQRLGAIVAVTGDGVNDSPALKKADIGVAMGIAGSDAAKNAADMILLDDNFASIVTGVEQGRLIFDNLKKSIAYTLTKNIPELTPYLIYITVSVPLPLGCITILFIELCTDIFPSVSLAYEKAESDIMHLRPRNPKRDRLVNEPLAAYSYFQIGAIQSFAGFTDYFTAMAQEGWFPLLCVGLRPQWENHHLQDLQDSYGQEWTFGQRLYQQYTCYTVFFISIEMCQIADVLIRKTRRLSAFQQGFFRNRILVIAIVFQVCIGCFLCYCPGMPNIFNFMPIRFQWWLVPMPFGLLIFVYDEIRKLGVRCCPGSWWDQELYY
T1 sequence (P18434 whole entry partner): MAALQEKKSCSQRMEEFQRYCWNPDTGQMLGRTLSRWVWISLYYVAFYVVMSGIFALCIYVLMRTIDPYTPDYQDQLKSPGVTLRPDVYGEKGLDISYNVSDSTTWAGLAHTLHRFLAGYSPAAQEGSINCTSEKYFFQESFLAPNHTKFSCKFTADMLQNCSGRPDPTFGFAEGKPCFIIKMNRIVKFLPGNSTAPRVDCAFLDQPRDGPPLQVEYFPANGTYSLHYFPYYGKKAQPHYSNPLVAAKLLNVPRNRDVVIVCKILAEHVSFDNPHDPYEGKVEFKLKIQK
Kind of experiment: Ion-leaky porcine gastric H+/K+-ATPase inhibition. In kind it is biochemical. The note with it: ion-leaky vesicles, 5 mM KCl, pH 6.4, 37° C., 30 minutes. The method, then:
The porcine gastric vesicles for Porcine gastric H^+/K^+-ATPase inhibition assays were prepared from mucous membrane in fresh porcine stomachs by homogenization with a tight-fitted polytetrafluoroethylene (Teflone®) homogenizer in 0.25 M sucrose at 4° C. The crude pellet was removed with centrifugation at 20,000 g for 30 min. Then supernatant was centrifuged at 100,000 g for 30 min. The resulting pellet was re-suspended in 0.25 M sucrose, and then subjected to density gradient centrifugation at 132,000 g for 90 min. The gastric vesicles were collected from interface on 0.25 M sucrose layer containing 7% Ficoll™ PM400(Amersham Biosciences). This procedure was performed in a cold room.
Ion-leaky porcine gastric H^+/K^+-ATPase-inhibition was measured according to the modified method described in Biochemical Pharmacology, 1988, 37, 2231-2236.
The isolated vesicles were lyophilized, and then kept in deep-freezer until use. For enzyme assay, lyophilized vesicles were reconstituted with 3 mM MgSO4 containing 40 mM Bis-tris (pH 6.4 at 37° C.).
Enzyme reaction was performed incubating 5 mM KCl, 3 mM Na2ATP, 3 mM MgSO4 and 1.0 μg of reconstituted vesicles for 30 minutes at 37° C. in a final 60 μl of reaction mixture (40 mM Bis-tris, pH 6.4) with or without the test compound. Enzyme reaction was stopped by adding 10% sodium dodecyl sulphate (SDS). Released inorganic phosphate from ATP was detected by incubation with mixture of 1 part of 35 mM ammonium molybdate tetrahydrate in 15 mM Zinc acetate hydrate and 4 parts of 10% ascorbic acid (pH 5.0), resulting in phosphomolybdate, which has optical density at 750 nm.
By IC50 is commonly meant the concentration needed to halve the response being measured. Low readings indicate greater potency in that assay, high ones weaker potency in that assay. Consider “8-3,4-Dihydro-1H-isochromen-4-ylamino)-N,N,2,3-tetramethylimidazo[1,2-a]pyridine-6-carboxamide [Example 3-1]”, for which half-maximal inhibition (IC50) required 103 nM. As for `Cc1nc2c(NC3CCOc4ccccc43)cc(C(=O)N(C)C)cn2c1C` (racemic) [Example 1-1, 8-(3,4-Dihydro-2H-chromen-4-ylamino)-N,N,2,3-tetramethylimidazo[1,2-a]pyridine-6-carboxamide], the IC50 is 85 nM. In the case of `Cc1nc2c(NC3CCOc4ccccc43)cc(C(=O)N(C)CCO)cn2c1C` (racemic) [Example 2-1, 8-(3,4-Dihydro-2H-chromen-4-ylamino)-N-(2-hydroxyethyl)-N,2,3-trimethylimidazo[1,2-a]pyridine-6-carboxamide], the IC50 came out at 49.7 nM. This IC50 lies about 1.7-fold lower than the previous one. `Cc1nc2c(NC3COCc4ccccc43)cc(C(=O)N(C)CCO)cn2c1C` (racemic) [Example 4-1, 8-(3,4-Dihydro-1H-isochromen-4-ylamino)-N-(2-hydroxyethyl)-N,2,3-trimethylimidazo[1,2-a]pyridine-6-carboxamide] yielded an IC50 of 87.1 nM.

For the compound `Cc1cccc2c1C(Nc1cc(C(=O)N(C)CCO)cn3c(C)c(C)nc13)CCO2` (racemic) [Example 5-1, N-(2-Hydroxyethyl)-N,2,3-trimethyl-8-[(5-methyl-3,4-dihydro-2H-chromen-4-yl)amino]imidazo[1,2-a]pyridine-6-carboxamide], the half-inhibitory concentration (IC50) turned out to be 94.7 nM. This IC50 and that of the compound before are within 1.5-fold of each other. With `Cc1nc2c(NC3CCOc4cc(F)ccc43)cc(C(=O)N(C)C)cn2c1C` (racemic) [Example 6-1, 8-[(7-Fluoro-3,4,dihydro-2H-chromen-4-yl)amino]-N,N,2,3-tetramethylimidazo[1,2-a]pyridine-6-carboxamide] the figure was 13.9 nM; with `Cc1nc2c(NC3CCOc4cc(F)ccc43)cc(C(=O)N(C)CCO)cn2c1C` (racemic) [Example 7-1, 8-[(7-Fluoro-3,4-dihydro-2H-chromen-4-yl)amino]-N-(2-hydroxyethyl)-N,2,3-trimethylimidazol[1,2-a]pyridlne-6-carboxamide], 26.6 nM; with `Cc1nc2c(NC3CCOc4cc(F)cc(F)c43)cc(C(=O)N(C)C)cn2c1C` (racemic) [Example 8-1, 8-[(5,7-Difluoro-3,4-dihydro-2H-chromen-4-yl)amino]-N,N,2,3-tetramethylimidazo[1,2-a]pyridine-6-carboxamide], 20 nM. Take `Cc1nc2c(NC3CCOc4cc(F)cc(F)c43)cc(C(=O)N(C)CCO)cn2c1C` (racemic) [Example 9-1, 8-[(5,7-Difluoro-3,4-dihydro-2H-chromen-4-yl)amino]-N-(2-hydroxyethyl)-N,2,3-trimethylimidazo[1,2-a]pyridine-6-carboxamide]: the 50% inhibitory concentration (IC50) stood at 50 nM. On to `Cc1nc2c(NC3CCOc4cccc(F)c43)cc(C(=O)N(C)C)cn2c1C` (racemic) [Example 10-1, 8-[(5-Fluoro-3,4-dihydro-2H-chromen-4-yl)amino]-N,N,2,3-tetramethylimidazo[1,2-a]pyridine-6-carboxamide], for which half-maximal inhibition (IC50) was put at 75.1 nM.

With `Cc1nc2c(NC3CCOc4cccc(F)c43)cc(C(=O)N(C)CCO)cn2c1C` (racemic) [Example 11-1, 8-[(5-Fluoro-3,4-dihydro-2H-chromen-4-yl)amino]-N-(2-hydroxyethyl)-N,2,3-trimethylimidazo[1,2-a]pyridine-6-carboxamide], the IC50 turned out to be 48.6 nM. For `Cc1nc2c(NC3CCOc4ccc(F)cc43)cc(C(=O)N(C)C)cn2c1C` (racemic) [Example 12-1, 8-[(6-Fluoro-3,4-dihydro-2H-chromen-4-yl)amino]-N,N,2,3-tetramethylimidazo[1,2-a]pyridine-6-carboxamide] the value was 20.8 nM.

With `Cc1nc2c(NC3CCOc4ccc(F)cc43)cc(C(=O)N(C)CCO)cn2c1C` (racemic) [Example 13-1, 8-[(6-Fluoro-3,4-dihydro-2H-chromen-4-yl)amino]-N-(2-hydroxyethyl)-N,2,3-trimethylimidazol[1,2-a]pyridine-6-carboxamide], the IC50 was 250 nM. As for `Cc1nc2c(NC3CCOc4c(F)cccc43)cc(C(=O)N(C)C)cn2c1C` (racemic) [Example 14-1, 8-[(8-Fluoro-3,4-dihydro-2H-chromen-4-yl)amino]-N,N,2,3-tetramethylimidazo[1,2-a]pyridine-6-carboxamide], 294 nM corresponded to half-maximal inhibition (IC50).

Compound `Cc1nc2c(NC3CCOc4c(F)cccc43)cc(C(=O)N(C)CCO)cn2c1C` (racemic) [Example 15-1, 8-[(8-Fluoro-3,4-dihydro-2H-chromen-4-yl)amino]-N-(2-hydroxyethyl)-N,2,3-trimethylimidazol[1,2-a]pyridine-6-carboxamide] registered a concentration for half-maximal inhibition (IC50) of 40.9 nM. The compound `Cc1ccc2c(c1)OCCC2Nc1cc(C(=O)N(C)CCO)cn2c(C)c(C)nc12` (racemic) [Example 16-1, N-(2-Hydroxyethyl)-N,2,3-trimethyl-8-[(7-methyl-3,4-dihydro-2H-chromen-4-yl)amino]imidazo[1,2-a]pyridine-6-carboxamide] gave a half-maximal inhibitory concentration (IC50) of 331 nM. With `Cc1cccc2c1C(Nc1cc(C(=O)N(C)C)cn3c(C)c(C)nc13)CCO2` (racemic) [Example 17-1, N,N,2,3-Tetramethyl-8-[(5-methyl-3,4-dihydro-2H-chromen-4-yl)amino]imidazo[1,2-a]pyridine-6-carboxamide] the figure was 64 nM. With `Cc1nc2c(NC3CCOc4cccc(Cl)c43)cc(C(=O)N(C)C)cn2c1C` (racemic) [Example 18-1, 8-[(5-Chloro-3,4-dihydro-2H-chromen-4-yl)amino]-N,N,2,3-tetramethylimidazo[1,2-a]pyridine-6-carboxamide] the figure was 350 nM. The compound `Cc1nc2c(NC3CCOc4cccc(Cl)c43)cc(C(=O)N(C)CCO)cn2c1C` (racemic) [Example 19-1, 8-[(5-Chloro-3,4-dihydro-2H-chromen-4-yl)amino]-N-(2-hydroxyethyl)-N,2,3-trimethylimidazo[1,2-a]pyridine-6-carboxamide] registered an IC50 of 390 nM. With `Cc1nc2c(NC3CCOc4cc(F)ccc43)cc(C(=O)N(C)C)cn2c1C` (single isomer, unassigned) [Example 6-2, 8-[(7-Fluoro-3,4,dihydro-2H-chromen-4-yl)amino]-N,N,2,3-tetramethylimidazo[1,2-a]pyridine-6-carboxamide], half-maximal inhibition (IC50) was put at 40.9 nM. This IC50 is about 9.5-fold lower than that of the compound before. With `Cc1nc2c(NC3CCOc4cc(F)ccc43)cc(C(=O)N(C)C)cn2c1C` (single isomer, unassigned) [Example 6-3, 8-[(7-Fluoro-3,4,dihydro-2H-chromen-4-yl)amino]-N,N,2,3-tetramethylimidazo[1,2-a]pyridine-6-carboxamide] the figure was 15.7 nM. With `Cc1nc2c(NC3CCOc4cc(F)ccc43)cc(C(=O)N(C)CCO)cn2c1C` (single isomer, unassigned) [Example 7-2, 8-[(7-Fluoro-3,4-dihydro-2H-chromen-4-yl)amino]-N-(2-hydroxyethyl)-N,2,3-trimethylimidazol[1,2-a]pyridlne-6-carboxamide] the figure was 20.5 nM; with `Cc1nc2c(NC3CCOc4cc(F)ccc43)cc(C(=O)N(C)CCO)cn2c1C` (single isomer, unassigned) [Example 7-3, 8-[(7-Fluoro-3,4-dihydro-2H-chromen-4-yl)amino]-N-(2-hydroxyethyl)-N,2,3-trimethylimidazol[1,2-a]pyridlne-6-carboxamide], 55.9 nM; with `Cc1nc2c(NC3CCOc4cc(F)cc(F)c43)cc(C(=O)N(C)C)cn2c1C` (single isomer, unassigned) [Example 8-2, 8-[(5,7-Difluoro-3,4-dihydro-2H-chromen-4-yl)amino]-N,N,2,3-tetramethylimidazo[1,2-a]pyridine-6-carboxamide], 23 nM. For `Cc1nc2c(NC3CCOc4cc(F)cc(F)c43)cc(C(=O)N(C)C)cn2c1C` (single isomer, unassigned) [Example 8-3, 8-[(5,7-Difluoro-3,4-dihydro-2H-chromen-4-yl)amino]-N,N,2,3-tetramethylimidazo[1,2-a]pyridine-6-carboxamide], inhibition was half-maximal at 49 nM (IC50). Against the preceding compound, the IC50 is about 2.1-fold higher. `Cc1nc2c(NC3CCOc4cc(F)cc(F)c43)cc(C(=O)N(C)CCO)cn2c1C` (single isomer, unassigned) [Example 9-2, 8-[(5,7-Difluoro-3,4-dihydro-2H-chromen-4-yl)amino]-N-(2-hydroxyethyl)-N,2,3-trimethylimidazo[1,2-a]pyridine-6-carboxamide] yielded a 50% inhibitory concentration (IC50) of 15.9 nM. `Cc1nc2c(NC3CCOc4cc(F)cc(F)c43)cc(C(=O)N(C)CCO)cn2c1C` (single isomer, unassigned) [Example 9-3, 8-[(5,7-Difluoro-3,4-dihydro-2H-chromen-4-yl)amino]-N-(2-hydroxyethyl)-N,2,3-trimethylimidazo[1,2-a]pyridine-6-carboxamide] had a half-maximal inhibitory concentration (IC50) of 53.2 nM. With `Cc1nc2c(NC3CCOc4cccc(F)c43)cc(C(=O)N(C)C)cn2c1C` (single isomer, unassigned) [Example 10-2, 8-[(5-Fluoro-3,4-dihydro-2H-chromen-4-yl)amino]-N,N,2,3-tetramethylimidazo[1,2-a]pyridine-6-carboxamide] the figure was 51.1 nM.

For the origin of these results see patent US20090291977A1, “Chromane Derivatives Useful As Acid Pump Antagonists” (priority 2004, published 2009).
